For data set [1], the target named is T1, recombinant human secretory phospholipase A2 (Homo sapiens, UniProt P14555).
T1 sequence (P14555 21-144): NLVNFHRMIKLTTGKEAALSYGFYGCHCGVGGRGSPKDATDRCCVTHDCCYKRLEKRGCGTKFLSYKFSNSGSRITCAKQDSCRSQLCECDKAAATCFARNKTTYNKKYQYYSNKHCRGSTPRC
Description: Inhibition test of human secretory phospholipase A2 (chromogenic assay, 96 well microtiterplate). The format is biochemical. To be noted: sPLA2 50 ng/well, 40° C., 30 minutes, OD 405 nm, substrate 1,2-bis(heptanoylthio)-1,2-dideoxy-sn-glycero-3-phospholylcholine. From the text: Inhibition Test of Human Secretory Phospholipase A2
In order to identify and evaluate an inhibitor of recombinant human secretory phospholipase A2, the following chromogenic assay is utilized. The assay herein has been applied for high volume screening wherein 96 well microtiterplate is used. A general explanation for such assay is described in “Analysis of Human Synovial Fluid Phospholipase A2 on Short Chain Phosphatidylcholine-Mixed Micelles: Development of a Spectrophotometric Assay Suitable for a Micortiterplate Reader” (Analytical Biochemistry, 204, pp 190-197, 1992 by Laure. J. Reynolds. Lori L. Hughes and Edward A. Dennis: the disclosure of which is incorporated herein for reference.
Bovine Serum Albumin (fatty acid free) (1 g/L) (Sigma A-7030)
pH 7.5 (adjusted with NaOH)
pH 4.5 (adjusted with acetic acid)
1 mg of sPLA2 is dissolved in 1 ml of an enzyme buffer. Thereafter, the solution is maintained at 4° C.
In the assay, 5 μl of the solution is diluted with 1995 μl of the reaction buffer to be used.
198 mg of 5,5′-dithiobis-2-[…] (manufactured by Wako Pure Chemicals) is dissolved in 100 ml of H2O
100 mg of racemic 1,2-bis(heptanoylthio)-1,2-dideoxy-sn-glycero-3-phospholylcholine is dissolved in 1 ml of chloroform.
624.9 mg of Triton-X 100 is dissolved in the reaction buffer.
Enzyme Reaction: for 1 plate of Microtiterplate
1) 0.106 ml of the substrate solution is put in a centrifugal tube, and nitrogen gas is jetted to remove the solvent. 0.54 ml of Triton-X 100 is added thereto, the mixture is stirred, thereafter it is sonified in a bath type sonification to dissolve. To the resulting product are added 17.8 m1l of the reaction buffer and 0.46 ml of DTNB, and 0.18 ml each of the admixture is poured to wells of the 96 well microtiterplate.
2) 10 μl of a test compound (or solvent blank) are added in accordance with alignment of plates which has been previously set.
3) Incubation is effected at 40° C. for 15 minutes.
4) 20 μl of an enzyme solution (sPLA2) which has been previously diluted (50 ng/well) are added to start reaction (40° C., 30 minutes).
5) Changes in absorbancy for 30 minutes are measured by a plate reader, and inhibition activity was calculated (OD: 405 nm).
6) IC50 was determined by plotting log concentration with respect to inhibition values within 10% to 90% inhibiting range.

The text below walks through data of patent US6472389B1, “Pyrrolo[1,2-b] pyridazine derivatives having sPLA2 inhibitory effect” (Shionogi & Co., Ltd., priority 1998, dated 2002).

As to `Cc1c(C(=O)C(N)=O)c2c(OCC(=O)O)cc(Cc3ccccc3)nn2c1C` [Compound I-81], the melting point is 232 to 233 °C (dec.). Further, the IC50 in data set [1] is 8.19 µM.

As for `Cc1cc(OCC(=O)O)c2c(C(=O)C(N)=O)c(C)c(Cc3ccccc3-c3ccc(F)cc3)n2n1` [Compound I-82], the melting point was 242 to 244 °C (dec.). Further, in data set [1], the IC50 came out at 0.093 µM.

On to `Cc1cc(OCC(=O)O)c2c(C(=O)C(N)=O)c(C)c(Cc3ccc(-c4ccccc4)cc3)n2n1` [Compound I-83], for which the melting point is 271 to 276 °C (dec.). Moreover, in data set [1], the IC50 stood at 0.083 µM.

On to `CCc1c(C(=O)C(N)=O)c2c(OCC(=O)O)cc(C)nn2c1Cc1ccccc1-c1ccc(F)cc1` [Compound I-84], for which the melting point was 214 to 216 °C (dec.). The IC50 in data set [1] is 0.008 µM.
